Measured values taken from the kinase profiling compilation of Christmann-Franck et al. (2016).

What was measured:
Assay in all cases: radiometric filter-binding kinase assay, Kinase HotSpot
Conditions in all cases: compound 0.5 µM; ATP 10 µM
FGR (human) = FGR (human) (UniProt P09769)
TAOK2 (human) = TAOK2 (human) (UniProt Q9UL54)
PRKCH (human) = PRKCH (human) (UniProt P24723)
IKBKB (human) = IKBKB (human) (UniProt O14920)
CSK (human) = CSK (human) (UniProt P41240)
BRSK2 (human) = BRSK2 (human) (UniProt Q8IWQ3)
RPS6KB2 (human) = RPS6KB2 (human) (UniProt Q9UBS0)
EPHA8 (human) = EPHA8 (human) (UniProt P29322)
CDK9 CCNK (human) = CDK9 CCNK (human) (UniProt O75909+P50750)
HCK (human) = HCK (human) (UniProt P08631)
PRKCD (human) = PRKCD (human) (UniProt Q05655)
NUAK2 (human) = NUAK2 (human) (UniProt Q9H093)
ABL2 (human) = ABL2 (human) (UniProt P42684)
CSNK1D (human) = CSNK1D (human) (UniProt P48730)
ACVR1 (human) = ACVR1 (human) (UniProt Q04771)
MARK3 (human) = MARK3 (human) (UniProt P27448)
MARK4 (human) = MARK4 (human) (UniProt Q96L34)
EPHA6 (human) = EPHA6 (human) (UniProt Q9UF33)
MAP2K2 (human) = MAP2K2 (human) (UniProt P36507)
MINK1 (human) = MINK1 (human) (UniProt Q8N4C8)
TGFBR1 (human) = TGFBR1 (human) (UniProt P36897)
FER (human) = FER (human) (UniProt P16591)
HIPK2 (human) = HIPK2 (human) (UniProt Q9H2X6)
DYRK2 (human) = DYRK2 (human) (UniProt Q92630)
EPHB4 (human) = EPHB4 (human) (UniProt P54760)
STK11 (human) = STK11 (human) (UniProt Q15831)
CDK5 CDK5R1 p35 (human) = CDK5 CDK5R1 p35 (human) (UniProt Q00535+Q15078)
NEK11 (human) = NEK11 (human) (UniProt Q8NG66)
ULK1 (human) = ULK1 (human) (UniProt O75385)
TYRO3 (human) = TYRO3 (human) (UniProt Q06418)
MAPK13 (human) = MAPK13 (human) (UniProt O15264)
EPHB1 (human) = EPHB1 (human) (UniProt P54762)
PAK7 (human) = PAK7 (human) (UniProt Q9P286)
DSTYK (human) = DSTYK (human) (UniProt Q6XUX3)
PRKCG (human) = PRKCG (human) (UniProt P05129)
INSR (human) = INSR (human) (UniProt P06213)
MAP3K10 (human) = MAP3K10 (human) (UniProt Q02779)
MERTK (human) = MERTK (human) (UniProt Q12866)
CDC42BPA (human) = CDC42BPA (human) (UniProt Q5VT25)
MATK (human) = MATK (human) (UniProt P42679)
MYLK2 (human) = MYLK2 (human) (UniProt Q9H1R3)
PIM3 (human) = PIM3 (human) (UniProt Q86V86)

DYRK2 (human), sequence (Q92630 whole entry, looked up): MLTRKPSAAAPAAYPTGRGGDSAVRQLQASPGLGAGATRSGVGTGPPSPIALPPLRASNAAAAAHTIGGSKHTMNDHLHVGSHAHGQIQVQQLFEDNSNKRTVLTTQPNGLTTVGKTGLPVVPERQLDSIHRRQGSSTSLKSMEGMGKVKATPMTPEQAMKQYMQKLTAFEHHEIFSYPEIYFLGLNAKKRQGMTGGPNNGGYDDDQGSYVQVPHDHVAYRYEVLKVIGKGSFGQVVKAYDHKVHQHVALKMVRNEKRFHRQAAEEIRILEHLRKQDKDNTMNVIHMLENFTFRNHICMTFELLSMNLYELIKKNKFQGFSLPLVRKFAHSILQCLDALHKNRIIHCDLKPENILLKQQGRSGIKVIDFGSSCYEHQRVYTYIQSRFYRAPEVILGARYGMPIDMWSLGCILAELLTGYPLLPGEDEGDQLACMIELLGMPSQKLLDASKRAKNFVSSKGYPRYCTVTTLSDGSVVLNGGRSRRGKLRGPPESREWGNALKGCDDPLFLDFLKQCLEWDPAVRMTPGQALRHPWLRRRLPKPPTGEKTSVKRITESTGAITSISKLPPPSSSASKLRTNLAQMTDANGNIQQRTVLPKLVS
STK11 (human), sequence (Q15831 whole entry, looked up): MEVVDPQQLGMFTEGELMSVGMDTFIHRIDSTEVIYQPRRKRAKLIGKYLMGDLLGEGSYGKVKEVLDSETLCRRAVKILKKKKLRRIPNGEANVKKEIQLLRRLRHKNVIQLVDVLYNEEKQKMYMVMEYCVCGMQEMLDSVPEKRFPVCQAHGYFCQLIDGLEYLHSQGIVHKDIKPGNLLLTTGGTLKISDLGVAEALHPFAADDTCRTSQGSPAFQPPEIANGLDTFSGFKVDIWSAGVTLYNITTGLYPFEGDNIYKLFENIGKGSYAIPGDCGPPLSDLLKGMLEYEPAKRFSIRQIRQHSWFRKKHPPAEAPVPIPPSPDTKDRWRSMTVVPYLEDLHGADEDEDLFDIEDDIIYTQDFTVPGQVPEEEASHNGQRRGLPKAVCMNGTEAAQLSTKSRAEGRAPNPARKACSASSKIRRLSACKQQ
DSTYK (human), sequence (Q6XUX3 whole entry, looked up): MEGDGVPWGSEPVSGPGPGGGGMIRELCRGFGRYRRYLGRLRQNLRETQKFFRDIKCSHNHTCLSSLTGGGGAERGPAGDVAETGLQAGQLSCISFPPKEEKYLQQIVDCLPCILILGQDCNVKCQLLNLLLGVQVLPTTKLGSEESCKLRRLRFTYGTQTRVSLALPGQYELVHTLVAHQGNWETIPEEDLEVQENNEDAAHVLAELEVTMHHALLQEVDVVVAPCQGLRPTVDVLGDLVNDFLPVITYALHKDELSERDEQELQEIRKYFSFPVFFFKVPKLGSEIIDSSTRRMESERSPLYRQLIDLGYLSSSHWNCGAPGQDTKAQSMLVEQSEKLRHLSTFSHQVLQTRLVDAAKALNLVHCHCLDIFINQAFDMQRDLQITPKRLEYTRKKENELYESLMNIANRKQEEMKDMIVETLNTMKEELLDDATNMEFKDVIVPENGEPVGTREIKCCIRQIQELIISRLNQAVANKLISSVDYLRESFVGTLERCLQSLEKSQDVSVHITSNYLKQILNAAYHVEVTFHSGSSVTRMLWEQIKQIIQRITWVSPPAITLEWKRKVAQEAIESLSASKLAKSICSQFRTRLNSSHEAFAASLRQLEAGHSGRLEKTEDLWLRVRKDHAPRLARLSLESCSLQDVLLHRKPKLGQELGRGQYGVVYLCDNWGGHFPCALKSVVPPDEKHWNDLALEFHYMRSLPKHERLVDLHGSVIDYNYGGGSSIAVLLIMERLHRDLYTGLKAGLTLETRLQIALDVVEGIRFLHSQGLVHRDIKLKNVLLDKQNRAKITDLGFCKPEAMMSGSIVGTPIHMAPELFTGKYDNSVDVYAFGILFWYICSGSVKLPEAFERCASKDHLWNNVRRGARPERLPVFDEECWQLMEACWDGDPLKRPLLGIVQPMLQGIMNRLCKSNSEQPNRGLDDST
MINK1 (human), sequence (Q8N4C8 whole entry, looked up): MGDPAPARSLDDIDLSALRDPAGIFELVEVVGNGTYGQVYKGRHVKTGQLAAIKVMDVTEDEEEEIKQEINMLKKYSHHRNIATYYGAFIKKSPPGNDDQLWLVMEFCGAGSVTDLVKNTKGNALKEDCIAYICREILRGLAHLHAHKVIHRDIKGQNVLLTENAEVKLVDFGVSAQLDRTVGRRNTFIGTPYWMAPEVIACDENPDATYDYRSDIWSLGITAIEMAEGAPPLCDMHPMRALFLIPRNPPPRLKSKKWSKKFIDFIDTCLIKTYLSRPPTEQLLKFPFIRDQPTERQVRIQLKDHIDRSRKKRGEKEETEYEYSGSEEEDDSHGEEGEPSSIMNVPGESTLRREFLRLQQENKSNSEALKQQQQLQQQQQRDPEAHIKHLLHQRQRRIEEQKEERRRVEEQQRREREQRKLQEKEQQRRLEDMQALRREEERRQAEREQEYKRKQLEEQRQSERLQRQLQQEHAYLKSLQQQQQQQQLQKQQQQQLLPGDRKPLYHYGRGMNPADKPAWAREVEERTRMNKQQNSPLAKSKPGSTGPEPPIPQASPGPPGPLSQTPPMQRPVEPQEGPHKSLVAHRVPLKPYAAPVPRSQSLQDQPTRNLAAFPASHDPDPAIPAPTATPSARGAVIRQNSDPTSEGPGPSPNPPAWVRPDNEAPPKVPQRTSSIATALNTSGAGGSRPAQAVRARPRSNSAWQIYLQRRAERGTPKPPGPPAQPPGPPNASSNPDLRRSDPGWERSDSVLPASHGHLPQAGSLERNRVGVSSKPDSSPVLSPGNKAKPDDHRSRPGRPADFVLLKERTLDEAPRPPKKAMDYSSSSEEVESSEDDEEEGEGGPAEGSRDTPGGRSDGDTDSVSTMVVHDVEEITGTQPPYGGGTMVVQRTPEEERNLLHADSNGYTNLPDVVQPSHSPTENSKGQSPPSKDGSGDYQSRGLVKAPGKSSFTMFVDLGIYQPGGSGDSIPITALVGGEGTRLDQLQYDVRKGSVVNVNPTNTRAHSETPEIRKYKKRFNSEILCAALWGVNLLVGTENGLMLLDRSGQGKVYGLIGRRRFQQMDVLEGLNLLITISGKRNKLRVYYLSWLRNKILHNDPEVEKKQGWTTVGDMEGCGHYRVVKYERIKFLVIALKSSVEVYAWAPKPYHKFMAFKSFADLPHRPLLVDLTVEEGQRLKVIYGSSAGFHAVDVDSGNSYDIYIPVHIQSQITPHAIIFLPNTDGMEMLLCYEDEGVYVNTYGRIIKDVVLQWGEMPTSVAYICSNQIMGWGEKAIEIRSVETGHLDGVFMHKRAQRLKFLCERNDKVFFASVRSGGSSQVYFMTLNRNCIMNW
EPHB4 (human), sequence (P54760 whole entry, looked up): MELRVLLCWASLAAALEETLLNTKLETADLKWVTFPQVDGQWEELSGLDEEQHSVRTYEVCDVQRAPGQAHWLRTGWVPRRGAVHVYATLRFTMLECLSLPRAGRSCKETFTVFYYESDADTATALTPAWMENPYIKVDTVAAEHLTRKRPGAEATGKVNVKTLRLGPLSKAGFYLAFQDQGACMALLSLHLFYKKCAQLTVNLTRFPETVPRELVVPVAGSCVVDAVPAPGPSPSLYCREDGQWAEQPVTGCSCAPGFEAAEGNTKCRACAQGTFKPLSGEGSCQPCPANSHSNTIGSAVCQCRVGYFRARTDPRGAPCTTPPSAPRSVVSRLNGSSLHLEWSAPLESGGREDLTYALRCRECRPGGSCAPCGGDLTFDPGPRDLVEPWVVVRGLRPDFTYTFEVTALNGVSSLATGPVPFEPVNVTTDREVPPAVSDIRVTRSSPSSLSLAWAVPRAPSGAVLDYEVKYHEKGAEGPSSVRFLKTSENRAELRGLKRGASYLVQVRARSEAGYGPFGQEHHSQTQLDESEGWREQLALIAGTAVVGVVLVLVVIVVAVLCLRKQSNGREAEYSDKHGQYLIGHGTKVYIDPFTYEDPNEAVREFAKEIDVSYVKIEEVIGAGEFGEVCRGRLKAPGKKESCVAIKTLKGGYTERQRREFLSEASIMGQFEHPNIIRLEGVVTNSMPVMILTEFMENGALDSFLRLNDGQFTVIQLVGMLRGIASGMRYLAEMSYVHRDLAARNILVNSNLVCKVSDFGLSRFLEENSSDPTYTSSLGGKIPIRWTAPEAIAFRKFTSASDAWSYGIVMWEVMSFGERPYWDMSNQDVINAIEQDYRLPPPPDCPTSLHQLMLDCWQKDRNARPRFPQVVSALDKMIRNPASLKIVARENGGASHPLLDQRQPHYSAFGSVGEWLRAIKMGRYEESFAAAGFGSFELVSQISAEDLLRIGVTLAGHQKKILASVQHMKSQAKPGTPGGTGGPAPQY
PRKCH (human), sequence (P24723 whole entry, looked up): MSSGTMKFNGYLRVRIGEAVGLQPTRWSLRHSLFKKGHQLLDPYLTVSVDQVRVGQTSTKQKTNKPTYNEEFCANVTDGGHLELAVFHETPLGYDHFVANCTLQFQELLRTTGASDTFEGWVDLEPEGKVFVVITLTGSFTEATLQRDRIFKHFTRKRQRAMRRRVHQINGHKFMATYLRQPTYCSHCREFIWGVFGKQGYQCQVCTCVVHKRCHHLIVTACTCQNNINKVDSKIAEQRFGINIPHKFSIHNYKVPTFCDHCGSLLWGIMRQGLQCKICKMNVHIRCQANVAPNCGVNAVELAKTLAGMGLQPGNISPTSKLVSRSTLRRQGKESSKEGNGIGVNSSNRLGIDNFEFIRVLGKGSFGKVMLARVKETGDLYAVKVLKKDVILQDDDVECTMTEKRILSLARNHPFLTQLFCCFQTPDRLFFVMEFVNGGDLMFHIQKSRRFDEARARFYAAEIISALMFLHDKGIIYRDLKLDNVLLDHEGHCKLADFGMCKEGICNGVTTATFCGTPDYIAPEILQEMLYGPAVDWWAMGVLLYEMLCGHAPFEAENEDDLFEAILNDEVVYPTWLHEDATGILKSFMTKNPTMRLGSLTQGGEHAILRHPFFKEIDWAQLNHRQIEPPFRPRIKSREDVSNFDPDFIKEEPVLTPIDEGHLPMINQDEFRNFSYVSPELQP

## CCC(=O)Nc1ccc2ncnc(Nc3cccc(Br)c3)c2c1
FGR (human)
  residual activity: 93.2%
TAOK2 (human)
  residual activity: 91.4%
PRKCH (human)
  residual activity: 89.3%
IKBKB (human)
  residual activity: 94.9%
CSK (human)
  residual activity: 89.5%
BRSK2 (human)
  residual activity: 94.3%
RPS6KB2 (human)
  residual activity: 94.9%
EPHA8 (human)
  residual activity: 96.6%
CDK9 CCNK (human)
  residual activity: 94.1%
HCK (human)
  residual activity: 93%
PRKCD (human)
  residual activity: 93.8%
NUAK2 (human)
  residual activity: 77.4%
ABL2 (human)
  residual activity: 96.6%
CSNK1D (human)
  residual activity: 96.9%
ACVR1 (human)
  residual activity: 93.7%
MARK3 (human)
  residual activity: 86.1%
MARK4 (human)
  residual activity: 80.2%
EPHA6 (human)
  residual activity: 79.5%
MAP2K2 (human)
  residual activity: 85.1%
MINK1 (human)
  residual activity: 95.8%
TGFBR1 (human)
  residual activity: 101%
FER (human)
  residual activity: 95.6%
HIPK2 (human)
  residual activity: 97%
DYRK2 (human)
  residual activity: 90.6%
EPHB4 (human)
  residual activity: 93.4%
STK11 (human)
  residual activity: 103%
CDK5 CDK5R1 p35 (human)
  residual activity: 100%
NEK11 (human)
  residual activity: 103%
ULK1 (human)
  residual activity: 103%
TYRO3 (human)
  residual activity: 101%
MAPK13 (human)
  residual activity: 106%
EPHB1 (human)
  residual activity: 93.3%
PAK7 (human)
  residual activity: 91.6%
DSTYK (human)
  residual activity: 91.3%
PRKCG (human)
  residual activity: 102%
INSR (human)
  residual activity: 101%
MAP3K10 (human)
  residual activity: 91.2%
MERTK (human)
  residual activity: 83.9%
CDC42BPA (human)
  residual activity: 101%
MATK (human)
  residual activity: 93.4%
MYLK2 (human)
  residual activity: 96.4%
PIM3 (human)
  residual activity: 76.6%

## CO[C@H]1CC2CC[C@@H](C)[C@@](O)(O2)C(=O)C(=O)N2CCCC[C@H]2C(=O)OC([C@H](C)C[C@@H]2CC[C@@H](O)[C@H](OC)C2)CC(=O)[C@H](C)/C=C(\C)[C@@H](O)[C@@H](OC)C(=O)[C@H](C)C[C@H](C)/C=C/C=C/C=C/1C (stereo partly specified)
FGR (human)
  residual activity: 94.5%
TAOK2 (human)
  residual activity: 97.6%
PRKCH (human)
  residual activity: 104%
IKBKB (human)
  residual activity: 109%
CSK (human)
  residual activity: 101%
BRSK2 (human)
  residual activity: 109%
RPS6KB2 (human)
  residual activity: 95.4%
EPHA8 (human)
  residual activity: 92.7%
CDK9 CCNK (human)
  residual activity: 106%
HCK (human)
  residual activity: 102%
PRKCD (human)
  residual activity: 102%
NUAK2 (human)
  residual activity: 140%
ABL2 (human)
  residual activity: 94.2%
CSNK1D (human)
  residual activity: 110%
ACVR1 (human)
  residual activity: 94.6%
MARK3 (human)
  residual activity: 99%
MARK4 (human)
  residual activity: 99.1%
EPHA6 (human)
  residual activity: 99%
MAP2K2 (human)
  residual activity: 103%
MINK1 (human)
  residual activity: 100%
TGFBR1 (human)
  residual activity: 99.5%
FER (human)
  residual activity: 92%
HIPK2 (human)
  residual activity: 88%
DYRK2 (human)
  residual activity: 100%
EPHB4 (human)
  residual activity: 89.5%
STK11 (human)
  residual activity: 91.1%
CDK5 CDK5R1 p35 (human)
  residual activity: 99.5%
NEK11 (human)
  residual activity: 73.6%
ULK1 (human)
  residual activity: 87.9%
TYRO3 (human)
  residual activity: 98.5%
MAPK13 (human)
  residual activity: 121%
EPHB1 (human)
  residual activity: 110%
PAK7 (human)
  residual activity: 106%
DSTYK (human)
  residual activity: 107%
PRKCG (human)
  residual activity: 106%
INSR (human)
  residual activity: 90.3%
MAP3K10 (human)
  residual activity: 109%
MERTK (human)
  residual activity: 90.9%
CDC42BPA (human)
  residual activity: 95.6%
MATK (human)
  residual activity: 92%
MYLK2 (human)
  residual activity: 103%
PIM3 (human)
  residual activity: 106%

## N#C/C(=C(/N)Sc1ccc(N)cc1)c1ccccc1C(F)(F)F
FGR (human)
  residual activity: 101%
TAOK2 (human)
  residual activity: 101%
PRKCH (human)
  residual activity: 96.4%
IKBKB (human)
  residual activity: 100%
CSK (human)
  residual activity: 90.9%
BRSK2 (human)
  residual activity: 102%
RPS6KB2 (human)
  residual activity: 105%
EPHA8 (human)
  residual activity: 94.1%
CDK9 CCNK (human)
  residual activity: 98%
HCK (human)
  residual activity: 93.9%
PRKCD (human)
  residual activity: 97.5%
NUAK2 (human)
  residual activity: 75%
ABL2 (human)
  residual activity: 101%
CSNK1D (human)
  residual activity: 106%
ACVR1 (human)
  residual activity: 101%
MARK3 (human)
  residual activity: 107%
MARK4 (human)
  residual activity: 101%
EPHA6 (human)
  residual activity: 92.3%
MAP2K2 (human)
  residual activity: 94.5%
MINK1 (human)
  residual activity: 104%
TGFBR1 (human)
  residual activity: 98.3%
FER (human)
  residual activity: 105%
HIPK2 (human)
  residual activity: 115%
DYRK2 (human)
  residual activity: 96.6%
EPHB4 (human)
  residual activity: 102%
STK11 (human)
  residual activity: 102%
CDK5 CDK5R1 p35 (human)
  residual activity: 103%
NEK11 (human)
  residual activity: 97.7%
ULK1 (human)
  residual activity: 99.6%
TYRO3 (human)
  residual activity: 110%
MAPK13 (human)
  residual activity: 104%
EPHB1 (human)
  residual activity: 98.8%
PAK7 (human)
  residual activity: 104%
DSTYK (human)
  residual activity: 113%
PRKCG (human)
  residual activity: 99.5%
INSR (human)
  residual activity: 101%
MAP3K10 (human)
  residual activity: 88.1%
MERTK (human)
  residual activity: 80.7%
CDC42BPA (human)
  residual activity: 103%
MATK (human)
  residual activity: 90.7%
MYLK2 (human)
  residual activity: 100%
PIM3 (human)
  residual activity: 111%
